Molecules are shown by their SMILES.

For the experiment, the system named is HMG-CoA reductase. Put plainly: intrinsic HMG-CoA reductase inhibition, in vitro protocol of J. Med. Chem., 28, p. 347-358 (1985). It counts as biochemical. As to conditions: IC50 of test compound compared with compactin (mevastatin) determined simultaneously; compactin assigned a value of 100. On the procedure: The intrinsic HMG-CoA reductase inhibition activity of the claimed compounds is measured in the in vitro protocol published in J. Med. Chem., 28, p. 347-358 (1985).
For estimation of relative inhibitory potencies, compactin (i.e., mevastatin) was assigned a value of 100 and the IC50 value of the test compound was compared with that of compactin determined simultaneously in the published in vitro protocol.

With `CCC(C)(C)C(=O)O[C@H]1C[C@@H](C)C[C@]23C[C@H]2C(=O)[C@H](C)[C@H](CC[C@@H]2C[C@@H](O)CC(=O)O2)[C@@H]13` [Example 1, 6(R)-[2-[2(R),6(S)-dimethyl-8(S)-(2,2-dimethylbutyryloxy)-α-4,4a-methyleno-1,2,3,4,4a,5,6,7,8,8a(R)-decahydro-3-oxo-naphthyl-1(S)]ethyl]-4(R)-hydroxy-3,4,5,6-tetrahydro-2H-pyran-2-one], the relative potency stood at 186.

Source of the values: US5010105A, “Antihypercholesterolemic compounds” (Merck & Co., Inc., priority 1990, dated 1991).
